# Experimental data as given in ChEMBL document CHEMBL3244014, “Selenium-sulfur analogues. 1. Synthesis and biochemical evaluation of selenotetramisole” (J Med Chem, 1978).
# Calls of active or inactive are those of the source. The calls are words filed in the database; no cut-off is given here.
# Target: Intestinal-type alkaline phosphatase (Homo sapiens) (UniProt P09923)
# Experiment: Inhibition of human serum containing 26% intestine alkaline phosphatase using p-nitrophenyl phosphate as substrate at 8.7 x 10^-5 M up to 35 mins by spectrophotometry
# Sequence of Intestinal-type alkaline phosphatase (Homo sapiens) (P09923 20-503 limits assumed): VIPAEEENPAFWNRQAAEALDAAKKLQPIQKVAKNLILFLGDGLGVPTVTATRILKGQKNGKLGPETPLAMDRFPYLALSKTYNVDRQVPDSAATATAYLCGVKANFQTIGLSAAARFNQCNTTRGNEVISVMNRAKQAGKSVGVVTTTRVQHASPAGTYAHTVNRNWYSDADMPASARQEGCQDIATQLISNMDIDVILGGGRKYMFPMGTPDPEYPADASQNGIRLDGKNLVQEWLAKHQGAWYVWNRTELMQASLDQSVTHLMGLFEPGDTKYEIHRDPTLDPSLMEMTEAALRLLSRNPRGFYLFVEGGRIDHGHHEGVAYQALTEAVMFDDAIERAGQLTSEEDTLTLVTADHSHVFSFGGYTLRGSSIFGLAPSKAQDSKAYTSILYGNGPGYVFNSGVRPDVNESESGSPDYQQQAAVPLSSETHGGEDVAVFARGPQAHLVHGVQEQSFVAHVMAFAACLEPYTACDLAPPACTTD
row,SMILES,inhibition
1,c1ccc([C@@H]2CN3CC[Se]C3=N2)cc1,inactive
2,c1ccc([C@H]2CN3CC[Se]C3=N2)cc1,70%
3,c1ccc([C@@H]2CN3CCSC3=N2)cc1 (stereo in doubt; (+)),inactive
4,c1ccc([C@@H]2CN3CCSC3=N2)cc1 (stereo in doubt; (-)),65%

# Target: T1, Alkaline phosphatase, tissue-nonspecific isozyme (Bos taurus) (UniProt P09487)
# T1 sequence (whole entry): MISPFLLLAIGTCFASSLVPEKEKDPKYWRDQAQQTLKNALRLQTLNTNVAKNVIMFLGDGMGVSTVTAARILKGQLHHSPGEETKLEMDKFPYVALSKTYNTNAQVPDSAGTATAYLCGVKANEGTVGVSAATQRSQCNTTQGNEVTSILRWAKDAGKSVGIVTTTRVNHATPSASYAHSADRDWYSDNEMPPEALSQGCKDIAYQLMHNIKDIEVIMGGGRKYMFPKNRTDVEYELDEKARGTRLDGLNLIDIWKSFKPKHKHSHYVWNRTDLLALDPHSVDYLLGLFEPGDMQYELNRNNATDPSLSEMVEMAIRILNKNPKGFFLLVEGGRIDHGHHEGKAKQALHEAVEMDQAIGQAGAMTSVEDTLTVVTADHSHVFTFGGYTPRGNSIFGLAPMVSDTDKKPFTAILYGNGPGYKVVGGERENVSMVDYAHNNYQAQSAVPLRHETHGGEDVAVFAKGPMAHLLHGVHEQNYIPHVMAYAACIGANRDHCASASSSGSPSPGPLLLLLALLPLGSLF
# Experiment: Inhibition of bovine liver alkaline phosphatase using p-nitrophenyl phosphate as substrate at 8.7 x 10^-5 M up to 35 mins by spectrophotometry
row,SMILES,inhibition
1,c1ccc([C@@H]2CN3CC[Se]C3=N2)cc1,inactive
2,c1ccc([C@H]2CN3CC[Se]C3=N2)cc1,76%
3,c1ccc([C@@H]2CN3CCSC3=N2)cc1 (stereo in doubt; (+)),inactive
4,c1ccc([C@@H]2CN3CCSC3=N2)cc1 (stereo in doubt; (-)),67%

# Target: T2, Alkaline phosphatase, tissue-nonspecific isozyme (Homo sapiens) (UniProt P05186)
# T2 sequence (whole entry): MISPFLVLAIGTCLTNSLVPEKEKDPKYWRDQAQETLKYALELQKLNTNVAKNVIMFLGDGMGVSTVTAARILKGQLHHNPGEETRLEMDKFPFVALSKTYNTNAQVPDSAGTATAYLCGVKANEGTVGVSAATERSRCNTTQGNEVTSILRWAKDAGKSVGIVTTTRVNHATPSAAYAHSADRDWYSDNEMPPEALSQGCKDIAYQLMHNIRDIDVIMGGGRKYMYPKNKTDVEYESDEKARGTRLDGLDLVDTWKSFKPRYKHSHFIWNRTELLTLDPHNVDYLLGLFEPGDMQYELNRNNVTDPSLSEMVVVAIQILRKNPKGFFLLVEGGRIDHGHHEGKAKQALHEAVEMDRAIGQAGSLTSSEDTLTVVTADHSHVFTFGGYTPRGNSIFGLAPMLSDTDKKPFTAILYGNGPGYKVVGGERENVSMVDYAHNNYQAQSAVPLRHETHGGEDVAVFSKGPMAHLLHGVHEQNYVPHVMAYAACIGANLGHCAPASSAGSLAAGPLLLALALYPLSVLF
# Experiment: Inhibition of human serum containing 60% liver alkaline phosphatase using p-nitrophenyl phosphate as substrate at 8.7 x 10^-5 M up to 35 mins by spectrophotometry
row,SMILES,inhibition
1,c1ccc([C@@H]2CN3CC[Se]C3=N2)cc1,inactive
2,c1ccc([C@H]2CN3CC[Se]C3=N2)cc1,78%
3,c1ccc([C@@H]2CN3CCSC3=N2)cc1 (stereo in doubt; (+)),inactive
4,c1ccc([C@@H]2CN3CCSC3=N2)cc1 (stereo in doubt; (-)),71%

# Target: T2, Alkaline phosphatase, tissue-nonspecific isozyme (Homo sapiens)
# Experiment: Inhibition of human serum containing 14% bone alkaline phosphatase using p-nitrophenyl phosphate as substrate at 8.7 x 10^-5 M up to 35 mins by spectrophotometry
row,SMILES,inhibition
1,c1ccc([C@@H]2CN3CC[Se]C3=N2)cc1,inactive
2,c1ccc([C@H]2CN3CC[Se]C3=N2)cc1,63%
3,c1ccc([C@@H]2CN3CCSC3=N2)cc1 (stereo in doubt; (+)),inactive
4,c1ccc([C@@H]2CN3CCSC3=N2)cc1 (stereo in doubt; (-)),56%

# Target: T2, Alkaline phosphatase, tissue-nonspecific isozyme (Homo sapiens)
# Experiment: Inhibition of human serum containing 40% bone alkaline phosphatase using p-nitrophenyl phosphate as substrate at 8.7 x 10^-5 M up to 35 mins by spectrophotometry
row,SMILES,inhibition
1,c1ccc([C@@H]2CN3CC[Se]C3=N2)cc1,inactive
2,c1ccc([C@H]2CN3CC[Se]C3=N2)cc1,78%
3,c1ccc([C@@H]2CN3CCSC3=N2)cc1 (stereo in doubt; (+)),inactive
4,c1ccc([C@@H]2CN3CCSC3=N2)cc1 (stereo in doubt; (-)),71%

# Target: T2, Alkaline phosphatase, tissue-nonspecific isozyme (Homo sapiens)
# Experiment: Inhibition of human serum containing 86% liver alkaline phosphatase using p-nitrophenyl phosphate as substrate at 8.7 x 10^-5 M up to 35 mins by spectrophotometry
row,SMILES,inhibition
1,c1ccc([C@@H]2CN3CC[Se]C3=N2)cc1,inactive
2,c1ccc([C@H]2CN3CC[Se]C3=N2)cc1,63%
3,c1ccc([C@@H]2CN3CCSC3=N2)cc1 (stereo in doubt; (+)),inactive
4,c1ccc([C@@H]2CN3CCSC3=N2)cc1 (stereo in doubt; (-)),56%

# Target: Intestinal-type alkaline phosphatase (Bos taurus) (UniProt P19111)
# Sequence (P19111 20-506 limits assumed): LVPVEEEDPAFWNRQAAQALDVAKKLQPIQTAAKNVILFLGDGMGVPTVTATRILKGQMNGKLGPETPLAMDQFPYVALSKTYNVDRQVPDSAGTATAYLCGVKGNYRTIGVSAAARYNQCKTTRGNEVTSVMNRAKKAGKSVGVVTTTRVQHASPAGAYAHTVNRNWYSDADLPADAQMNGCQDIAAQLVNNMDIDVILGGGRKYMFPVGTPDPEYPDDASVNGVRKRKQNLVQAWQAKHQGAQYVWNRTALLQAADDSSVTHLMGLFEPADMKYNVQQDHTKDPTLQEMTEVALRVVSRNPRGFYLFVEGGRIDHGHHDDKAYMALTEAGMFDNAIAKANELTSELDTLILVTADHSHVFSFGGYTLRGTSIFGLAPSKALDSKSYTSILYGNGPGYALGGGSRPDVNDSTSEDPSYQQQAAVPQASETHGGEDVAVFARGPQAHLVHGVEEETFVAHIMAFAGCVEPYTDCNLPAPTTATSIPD
# Experiment: Inhibition of calf intestine alkaline phosphatase using p-nitrophenyl phosphate as substrate at 8.7 x 10^-5 M up to 35 mins by spectrophotometry
row,SMILES,inhibition
1,c1ccc([C@@H]2CN3CC[Se]C3=N2)cc1,inactive
2,c1ccc([C@H]2CN3CC[Se]C3=N2)cc1,10%
3,c1ccc([C@@H]2CN3CCSC3=N2)cc1 (stereo in doubt; (+)),inactive
4,c1ccc([C@@H]2CN3CCSC3=N2)cc1 (stereo in doubt; (-)),10%

# Target: T2, Alkaline phosphatase, tissue-nonspecific isozyme (Homo sapiens)
# Experiment: Inhibition of human serum containing 64% liver alkaline phosphatase using p-nitrophenyl phosphate as substrate at 8.7 x 10^-5 M up to 35 mins by spectrophotometry
row,SMILES,inhibition
1,c1ccc([C@@H]2CN3CC[Se]C3=N2)cc1,inactive
2,c1ccc([C@H]2CN3CC[Se]C3=N2)cc1,70%
3,c1ccc([C@@H]2CN3CCSC3=N2)cc1 (stereo in doubt; (+)),inactive
4,c1ccc([C@@H]2CN3CCSC3=N2)cc1 (stereo in doubt; (-)),65%

# Species on record: Bos taurus
# Experiment: Inhibition of bovine placenta alkaline phosphatase using p-nitrophenyl phosphate as substrate at 8.7 x 10^-5 M up to 35 mins by spectrophotometry
row,SMILES,inhibition
1,c1ccc([C@@H]2CN3CC[Se]C3=N2)cc1,inactive
2,c1ccc([C@H]2CN3CC[Se]C3=N2)cc1,78%
3,c1ccc([C@@H]2CN3CCSC3=N2)cc1 (stereo in doubt; (+)),inactive
4,c1ccc([C@@H]2CN3CCSC3=N2)cc1 (stereo in doubt; (-)),75%

# Target: T2, Alkaline phosphatase, tissue-nonspecific isozyme (Homo sapiens)
# Experiment: Inhibition of human serum containing 10% bone alkaline phosphatase using p-nitrophenyl phosphate as substrate at 8.7 x 10^-5 M up to 35 mins by spectrophotometry
row,SMILES,inhibition
1,c1ccc([C@@H]2CN3CC[Se]C3=N2)cc1,inactive
2,c1ccc([C@H]2CN3CC[Se]C3=N2)cc1,70%
3,c1ccc([C@@H]2CN3CCSC3=N2)cc1 (stereo in doubt; (+)),inactive
4,c1ccc([C@@H]2CN3CCSC3=N2)cc1 (stereo in doubt; (-)),65%

# Target: Alkaline phosphatase, placental type (Homo sapiens) (UniProt P05187)
# Sequence (P05187 whole entry): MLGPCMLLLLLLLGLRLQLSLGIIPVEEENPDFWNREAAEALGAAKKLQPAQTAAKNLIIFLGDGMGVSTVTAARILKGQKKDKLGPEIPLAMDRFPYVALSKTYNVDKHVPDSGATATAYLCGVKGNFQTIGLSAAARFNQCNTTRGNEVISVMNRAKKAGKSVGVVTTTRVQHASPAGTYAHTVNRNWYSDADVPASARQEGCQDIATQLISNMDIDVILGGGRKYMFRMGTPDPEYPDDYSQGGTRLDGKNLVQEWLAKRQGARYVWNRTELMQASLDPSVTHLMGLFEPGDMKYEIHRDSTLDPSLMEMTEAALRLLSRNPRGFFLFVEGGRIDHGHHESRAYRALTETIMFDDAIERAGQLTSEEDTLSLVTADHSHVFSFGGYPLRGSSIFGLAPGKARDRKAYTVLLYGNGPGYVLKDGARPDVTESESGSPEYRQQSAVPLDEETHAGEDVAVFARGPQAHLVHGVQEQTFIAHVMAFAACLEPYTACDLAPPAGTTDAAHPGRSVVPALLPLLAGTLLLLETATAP
# Experiment: Inhibition of human placenta alkaline phosphatase using p-nitrophenyl phosphate as substrate at 8.7 x 10^-5 M up to 35 mins by spectrophotometry
row,SMILES,inhibition
1,c1ccc([C@@H]2CN3CC[Se]C3=N2)cc1,inactive
2,c1ccc([C@H]2CN3CC[Se]C3=N2)cc1,0%
3,c1ccc([C@@H]2CN3CCSC3=N2)cc1 (stereo in doubt; (+)),inactive
4,c1ccc([C@@H]2CN3CCSC3=N2)cc1 (stereo in doubt; (-)),0%

# Target: T2, Alkaline phosphatase, tissue-nonspecific isozyme (Homo sapiens)
# Experiment: Inhibition of human serum containing 8% liver alkaline phosphatase using p-nitrophenyl phosphate as substrate at 8.7 x 10^-5 M up to 35 mins by spectrophotometry
row,SMILES,inhibition
1,c1ccc([C@@H]2CN3CC[Se]C3=N2)cc1,inactive
2,c1ccc([C@H]2CN3CC[Se]C3=N2)cc1,80%
3,c1ccc([C@@H]2CN3CCSC3=N2)cc1 (stereo in doubt; (+)),inactive
4,c1ccc([C@@H]2CN3CCSC3=N2)cc1 (stereo in doubt; (-)),76%

# Target: T2, Alkaline phosphatase, tissue-nonspecific isozyme (Homo sapiens)
# Experiment: Inhibition of human serum containing 92% liver alkaline phosphatase using p-nitrophenyl phosphate as substrate at 8.7 x 10^-5 M up to 35 mins by spectrophotometry
row,SMILES,inhibition
1,c1ccc([C@@H]2CN3CC[Se]C3=N2)cc1,inactive
2,c1ccc([C@H]2CN3CC[Se]C3=N2)cc1,80%
3,c1ccc([C@@H]2CN3CCSC3=N2)cc1 (stereo in doubt; (+)),inactive
4,c1ccc([C@@H]2CN3CCSC3=N2)cc1 (stereo in doubt; (-)),76%
